Each structure is given as a SMILES string.

Common to all, as to format: physicochemical
Data set [1] is described as follows: Lightfastness test of thin films. The settings on record: thin film on glass plate, UV fluorescent lamps 15 W/m^2, 45° C., 10 hours. An excerpt:
Thin films of Complex Compounds (2) to (5), (7), (9) to (11), (13) to (21), (24), (26), (28), (30), (31), and (33) were respectively obtained similarly to the film-forming test except that a glass plate (manufactured by Taiyu Kizai Co., Ltd.; 2 cm×2 cm; thickness: 2 mm) was used as the substrates instead of the plate made of polycarbonate resin. Using a dewpanel light control weather meter DPWL-5R, manufactured by Suga Test Instruments Co., Ltd., which was equipped with ultraviolet fluorescent lamps (SUGA-FS40, manufactured by Suga Test Instruments Co., Ltd., having a peak wavelength of 313 nm and an illuminance distribution of 282 nm to 373 nm), light was irradiated on the thin films with an amount of light of 15 W/m^2 at 45° C. for 10 hours. Ultraviolet-visible absorption spectra of the thin film before and after the lightfastness test were measured using a spectrophotometer.
Here, the absorption maximum wavelength after lightfastness test denotes an absorption maximum wavelength in the absorption spectrum after the lightfastness test.

A short description of data set [2]: Moisture- and heat-resistances test of thin films. The note with it: thin film, 80° C., relative humidity 80%, 100 hours. The method, then:
Similarly to the film-forming test, thin films of Complex Compounds (2) to (5), (7), (9) to (11), (13) to (21), (24), (26), (28), (30), (31), and (33) were respectively obtained. Using a constant temperature and humidity chamber, KHWII-40HP, manufactured by Satake Chemical Equipment Mfg Ltd., the thin films were exposed in the atmosphere having a temperature of 80° C. and a relative humidity of 80% for 100 hours. Ultraviolet-visible absorption spectra of the thin films before and after the moisture- and heat-resistances test were measured using a spectrophotometer. […] Here, the absorption maximum wavelength after the moisture- and heat-resistances test denotes the absorption maximum wavelength in an absorption spectrum after the moisture- and heat-resistances test.

The nature of data set [3]: Test of storage stability in solution. The settings on record: 13 mg in 1 mL TFP, brown bottle, 25° C., 3 days; 1250-fold diluted for measurement. The procedure: Each of 13 mg of Complex Compounds (2) to (5), (7), (9) to (11), (13) to (21), (24), (26), (28), (30), (31), and (33) was dissolved in 1 mL of TFP, which was filtered with a filter made of TEFLON (registered trademark) (manufactured by Whatman, having a pore diameter of 0.20 μm), and solutions of Complex Compounds (2) to (5), (7), (9) to (11), (13) to (21), (24), (26), (28), (30), (31), and (33) were respectively obtained. Each of the obtained solutions was transferred to a brown bottle with a lid and stored at 25° C. for 3 days. Before and after the storage stability test, using a spectrophotometer, 1250-fold diluted solutions of Complex Compounds (2) to (5), (7), (9) to (11), (13) to (21), (24), (26), (28), (30), (31), and (33), respectively, were measured for their ultraviolet-visible absorption spectra. […] Here, the absorption maximum wavelength after the storage stability test is the absorption maximum wavelength in the absorption spectrum after the storage stability test.

On to `CCn1c([O-])c(/C=N/[N-]c2ncccn2)c(C)c(C#N)c1=O.CCn1c([O-])c(/C=N/[N-]c2ncccn2)c(C)c(C#N)c1=O.CCn1c([O-])c(/C=N/[N-]c2ncccn2)c(C)c(C#N)c1=O.CCn1c([O-])c(/C=N/[N-]c2ncccn2)c(C)c(C#N)c1=O.Oc1ccc(-c2ccccc2)cc1-[n+]1ccc(-c2cc[n+](-c3cc(-c4ccccc4)ccc3O)cc2)cc1.[Co+3].[Co+3]` [Complex Compound (7)], for which the “I^a/I^a0 (absorbance ratio at absorption maximum after/before lightfastness test)” value in data set [1] is listed as 0.99. Moreover, in data set [2], the “I^b/I^b0 (absorbance ratio at absorption maximum after/before moisture- and heat-resistances test)” value is recorded as 1.00; the “Δλmax(b) (change in absorption maximum wavelength)” value was 0 nm. In addition, in data set [3], the “I^c/I^c0 (absorbance ratio at absorption maximum after/before storage stability test)” value is 1.00 and the “Δλmax(c) (change in absorption maximum wavelength)” value was 0 nm.

As for `CCn1c([O-])c(/C=N/[N-]C(=O)c2ccc(C(F)(F)F)cc2)c(C)c(C#N)c1=O.CCn1c([O-])c(/C=N/[N-]C(=O)c2ccc(C(F)(F)F)cc2)c(C)c(C#N)c1=O.CCn1c([O-])c(/C=N/[N-]C(=O)c2ccc(C(F)(F)F)cc2)c(C)c(C#N)c1=O.CCn1c([O-])c(/C=N/[N-]C(=O)c2ccc(C(F)(F)F)cc2)c(C)c(C#N)c1=O.Oc1ccc(-c2ccccc2)cc1-[n+]1ccc(-c2cc[n+](-c3cc(-c4ccccc4)ccc3O)cc2)cc1.[Co+3].[Co+3]` [Complex Compound (9)], the “I^a/I^a0 (absorbance ratio at absorption maximum after/before lightfastness test)” value in data set [1] came out at 0.97. Also, in data set [2], the “I^b/I^b0 (absorbance ratio at absorption maximum after/before moisture- and heat-resistances test)” value is recorded as 1.00; the “Δλmax(b) (change in absorption maximum wavelength)” value amounted to 0 nm. Besides, in data set [3], the “I^c/I^c0 (absorbance ratio at absorption maximum after/before storage stability test)” value is given as 1.00 and the “Δλmax(c) (change in absorption maximum wavelength)” value is reported as 0 nm.

With `CCn1c([O-])c(/C=N/[N-]C(=O)c2ccc(C(F)(F)F)cc2)c(C)c(C#N)c1=O.CCn1c([O-])c(/C=N/[N-]C(=O)c2ccc(C(F)(F)F)cc2)c(C)c(C#N)c1=O.CCn1c([O-])c(/C=N/[N-]C(=O)c2ccc(C(F)(F)F)cc2)c(C)c(C#N)c1=O.CCn1c([O-])c(/C=N/[N-]C(=O)c2ccc(C(F)(F)F)cc2)c(C)c(C#N)c1=O.[Co+3].[Co+3].c1cc2ccc3ccc[n+]4c3c2[n+](c1)CCC4` [Complex Compound (10)], the “I^a/I^a0 (absorbance ratio at absorption maximum after/before lightfastness test)” value in data set [1] was 0.99. In data set [2], the “I^b/I^b0 (absorbance ratio at absorption maximum after/before moisture- and heat-resistances test)” value came out at 1.00; the “Δλmax(b) (change in absorption maximum wavelength)” value is reported as 0.5 nm. In data set [3], the “I^c/I^c0 (absorbance ratio at absorption maximum after/before storage stability test)” value came out at 1.00 and the “Δλmax(c) (change in absorption maximum wavelength)” value is recorded as 0 nm.

Turning to `CCn1c([O-])c(/C=N/[N-]C(=O)c2ccc(C(F)(F)F)cc2)c(C)c(C#N)c1=O.CCn1c([O-])c(/C=N/[N-]C(=O)c2ccc(C(F)(F)F)cc2)c(C)c(C#N)c1=O.CCn1c([O-])c(/C=N/[N-]C(=O)c2ccc(C(F)(F)F)cc2)c(C)c(C#N)c1=O.CCn1c([O-])c(/C=N/[N-]C(=O)c2ccc(C(F)(F)F)cc2)c(C)c(C#N)c1=O.[Co+3].[Co+3].c1cc[n+]2c(c1)-c1cccc[n+]1CCC2` [Complex Compound (11)], the “I^a/I^a0 (absorbance ratio at absorption maximum after/before lightfastness test)” value in data set [1] came out at 0.97. Moreover, in data set [2], the “I^b/I^b0 (absorbance ratio at absorption maximum after/before moisture- and heat-resistances test)” value is recorded as 1.00; the “Δλmax(b) (change in absorption maximum wavelength)” value is reported as 0 nm. Further, in data set [3], the “I^c/I^c0 (absorbance ratio at absorption maximum after/before storage stability test)” value is 1.00 and the “Δλmax(c) (change in absorption maximum wavelength)” value is given as 0 nm.

Take `Cc1c(/C=N/[N-]c2nnnn2-c2ccccc2)c([O-])n(CC(C)C)c(=O)c1C#N.Cc1c(/C=N/[N-]c2nnnn2-c2ccccc2)c([O-])n(CC(C)C)c(=O)c1C#N.Cc1c(/C=N/[N-]c2nnnn2-c2ccccc2)c([O-])n(CC(C)C)c(=O)c1C#N.Cc1c(/C=N/[N-]c2nnnn2-c2ccccc2)c([O-])n(CC(C)C)c(=O)c1C#N.[Co+3].[Co+3].c1cc[n+]2c(c1)-c1cccc[n+]1CCC2` [Complex Compound (14)]: the “I^a/I^a0 (absorbance ratio at absorption maximum after/before lightfastness test)” value in data set [1] was 0.92. In data set [2], the “I^b/I^b0 (absorbance ratio at absorption maximum after/before moisture- and heat-resistances test)” value is 1.00; the “Δλmax(b) (change in absorption maximum wavelength)” value is reported as 0 nm. In addition, in data set [3], the “I^c/I^c0 (absorbance ratio at absorption maximum after/before storage stability test)” value is 1.01 and the “Δλmax(c) (change in absorption maximum wavelength)” value came out at 0 nm.

On to `Cc1c(/C=N/[N-]c2nnnn2-c2ccccc2)c([O-])n(CC(C)C)c(=O)c1C#N.Cc1c(/C=N/[N-]c2nnnn2-c2ccccc2)c([O-])n(CC(C)C)c(=O)c1C#N.[Co+3].c1ccc(-c2nn(-c3ccccc3)[n+](-c3ccccc3)n2)cc1` [Complex Compound (15)], for which the “I^a/I^a0 (absorbance ratio at absorption maximum after/before lightfastness test)” value in data set [1] was determined as 0.88. In addition, in data set [2], the “I^b/I^b0 (absorbance ratio at absorption maximum after/before moisture- and heat-resistances test)” value came to 1.00; the “Δλmax(b) (change in absorption maximum wavelength)” value is 0 nm. For the same compound, in data set [3], the “I^c/I^c0 (absorbance ratio at absorption maximum after/before storage stability test)” value is reported as 1.01 and the “Δλmax(c) (change in absorption maximum wavelength)” value came out at 0 nm.

Take `Cc1c(/C=N/[N-]c2nnnn2-c2ccccc2)c([O-])n(CC(C)C)c(=O)c1C#N.Cc1c(/C=N/[N-]c2nnnn2-c2ccccc2)c([O-])n(CC(C)C)c(=O)c1C#N.Cc1c(/C=N/[N-]c2nnnn2-c2ccccc2)c([O-])n(CC(C)C)c(=O)c1C#N.Cc1c(/C=N/[N-]c2nnnn2-c2ccccc2)c([O-])n(CC(C)C)c(=O)c1C#N.[Co+3].[Co+3].c1ccc2c[n+](CCCCCCCCCC[n+]3ccc4ccccc4c3)ccc2c1` [Complex Compound (16)]: in data set [1], the “I^a/I^a0 (absorbance ratio at absorption maximum after/before lightfastness test)” value came out at 0.90. Also, in data set [2], the “I^b/I^b0 (absorbance ratio at absorption maximum after/before moisture- and heat-resistances test)” value was determined as 1.00; the “Δλmax(b) (change in absorption maximum wavelength)” value worked out at 0 nm. For the same compound, in data set [3], the “I^c/I^c0 (absorbance ratio at absorption maximum after/before storage stability test)” value is recorded as 1.01 and the “Δλmax(c) (change in absorption maximum wavelength)” value turned out to be 0 nm.

`Cc1c(/C=N/[N-]c2nnnn2-c2ccccc2)c([O-])n(CC(C)C)c(=O)c1C#N.Cc1c(/C=N/[N-]c2nnnn2-c2ccccc2)c([O-])n(CC(C)C)c(=O)c1C#N.Cc1c(/C=N/[N-]c2nnnn2-c2ccccc2)c([O-])n(CC(C)C)c(=O)c1C#N.Cc1c(/C=N/[N-]c2nnnn2-c2ccccc2)c([O-])n(CC(C)C)c(=O)c1C#N.[Co+3].[Co+3].c1ccc2c[n+](CCCCCC[n+]3ccc4ccccc4c3)ccc2c1` [Complex Compound (17)]: in data set [1], the “I^a/I^a0 (absorbance ratio at absorption maximum after/before lightfastness test)” value was determined as 0.88. In data set [2], the “I^b/I^b0 (absorbance ratio at absorption maximum after/before moisture- and heat-resistances test)” value was 0.98; the “Δλmax(b) (change in absorption maximum wavelength)” value is reported as 0 nm. Moreover, in data set [3], the “I^c/I^c0 (absorbance ratio at absorption maximum after/before storage stability test)” value worked out at 0.98 and the “Δλmax(c) (change in absorption maximum wavelength)” value amounted to 0 nm.

With `COc1ccc2cc3[n+](cc2c1OC)CCc1cc2c(cc1-3)OCO2.Cc1c(/C=N/[N-]c2nnnn2-c2ccccc2)c([O-])n(CC(C)C)c(=O)c1C#N.Cc1c(/C=N/[N-]c2nnnn2-c2ccccc2)c([O-])n(CC(C)C)c(=O)c1C#N.[Co+3]` [Complex Compound (18)], the “I^a/I^a0 (absorbance ratio at absorption maximum after/before lightfastness test)” value in data set [1] is 0.90. For the same compound, in data set [2], the “I^b/I^b0 (absorbance ratio at absorption maximum after/before moisture- and heat-resistances test)” value worked out at 1.00; the “Δλmax(b) (change in absorption maximum wavelength)” value came to 0 nm. Also, in data set [3], the “I^c/I^c0 (absorbance ratio at absorption maximum after/before storage stability test)” value came to 1.00 and the “Δλmax(c) (change in absorption maximum wavelength)” value stood at 0 nm.

On to `Cc1c(/C=N/[N-]c2nnnn2-c2ccccc2)c([O-])n(CC(C)C)c(=O)c1C#N.Cc1c(/C=N/[N-]c2nnnn2-c2ccccc2)c([O-])n(CC(C)C)c(=O)c1C#N.Cc1c(/C=N/[N-]c2nnnn2-c2ccccc2)c([O-])n(CC(C)C)c(=O)c1C#N.Cc1c(/C=N/[N-]c2nnnn2-c2ccccc2)c([O-])n(CC(C)C)c(=O)c1C#N.[Co+3].[Co+3].c1ccc2c(c1)ccc[n+]2CCCC[n+]1cccc2ccccc21` [Complex Compound (21)], for which the “I^a/I^a0 (absorbance ratio at absorption maximum after/before lightfastness test)” value in data set [1] is on record as 0.87. Besides, in data set [2], the “I^b/I^b0 (absorbance ratio at absorption maximum after/before moisture- and heat-resistances test)” value is reported as 1.00; the “Δλmax(b) (change in absorption maximum wavelength)” value was 0.5 nm. In data set [3], the “I^c/I^c0 (absorbance ratio at absorption maximum after/before storage stability test)” value is 1.01 and the “Δλmax(c) (change in absorption maximum wavelength)” value was determined as 0.5 nm.

The record behind these values is US20130123494A1, “COMPLEX COMPOUND AND OPTICAL RECORDING MEDIUM CONTAINING SAME” (KH NEOCHEM CO., LTD., priority 2010, published 2013).
